Data as given in patent US11028090B2 (Dong Wha Pharm. Co., Ltd., priority 2017, dated 2021).
Where two headings read alike, the source gives them in different places.

Target: BRD4 (BD1+BD2) bromodomain (Homo sapiens (Human), UniProt O60885)
Test: BRD4 binding inhibition (AlphaScreen, GST-BRD4 vs tetraacetylated histone H4 peptide)
Method in brief: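 GST-BRD4 (BD1+BD2) and biotinylated tetraacetyl-histone H4 peptide, each at 100 nM in HEPES pH 7.4 buffer with BSA and DTT, were combined with compound. Glutathione acceptor and streptavidin donor beads were added, then incubated 30 min at room temperature in the dark. Read-out was AlphaScreen signal.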

[1] = GST-BRD4 (BD1+BD2) vs biotinylated acetyl-histone H4 peptide, AlphaScreen, read-out: BRD4 IC50
[2] = GST-BRD4 (BD1+BD2) / biotinylated acetyl-histone H4 (Lys5,8,12,16) peptide, read-out: IC50, BRD4 binding inhibition

## Cc1nnc2c(NCCCCNC(=O)OC(C)(C)C)nc3ccc(C(=O)Nc4ccccc4)cc3n12 [Example 538, [4-(1-methyl-8-phenylcarbamoyl-[1,2,4]triazolo[4,3-a]quinoxaline-4-ylamino)-butyl]-carbamic acid-tert-butylester]
[1]
  IC50: 69 nM

## COc1cc(C)c2c(c1)nc(NCCCCN)c1nnc(C)n12 [Example 456, N^1-(7-methoxy-1,9-dimethyl-[1,2,4]triazolo[4,3-a]quinoxaline-4-yl)-butane-1,4-diamine ditrifluoroacetic acid]
[1]
  IC50: 75 nM

## COc1ccc2c(c1)nc(NCCCCNC(=O)[C@H](C(C)C)N1CCOCC1)c1nnc(C)n12 [Example 314, N-[4-(7-methoxy-1-methyl-[1,2,4]triazolo[4,3-a]quinoxaline-4-ylamino)-butyl]-3-methyl-2-(S)-morpholine-4-yl-butyramide]
[1]
  IC50: 56 nM

## COc1cccc2c1nc(NCCCCNC(=O)C(C)(C)C)c1nnc(C)n12 [Example 119, N-[4-(6-methoxy-1-methyl-[1,2,4]triazolo[4,3-a]quinoxaline-4-ylamino)-butyl]-2,2-dimethyl-propionamide]
[1]
  IC50: 79 nM

## COCCOc1cc2c(cc1OC)nc(NCCCCNC(=O)CC(C)C)c1nnc(C)n12 [Example 485, N-{4-[7-methoxy-8-(2-methoxy-ethoxy)-1-methyl-[1,2,4]triazolo[4,3-a]quinoxaline-4-ylamino]-butyl}-3-methyl-butyramide]
[1]
  IC50: 59 nM

## COc1cc2c(nc(NCCCCNC(=O)CC(C)C)c3nnc(C)n32)c(OC)c1OC [Example 195, 3-methyl-N-[4-(6,7,8-trimethoxy-1-methyl-[1,2,4]triazolo[4,3-a]quinoxaline-4-ylamino)-butyl]-butyramide]
[1]
  IC50: 69 nM

## COc1ccc2c(c1)nc(NCCCCNC(=O)CC(C)C)c1nnc(C(C)C)n12 [Example 627]
[2]
  IC50: ≤ 50 nM
[1]
  IC50: 23 nM

## Cc1nnc2c(NCCCCNC(=O)CC(C)C)nc3cc(OCc4ccc(-c5nn[nH]n5)cc4)ccc3n12 [Example 348, 3-methyl-N-(4-{1-methyl-7-[4-(2H-tetrazol-5-yl)-benzyloxy]-[1,2,4]triazolo[4,3-a]quinoxaline-4-ylamino}-butyl)-butyramide]
[1]
  IC50: 100 nM

## COc1cc2c(cc1C)nc(NCCCCNC(=O)c1ccccc1F)c1nnc(C)n12 [Example 155, 2-fluoro-N-[4-(8-methoxy-1,7-dimethyl-[1,2,4]triazolo[4,3-a]quinoxaline-4-ylamino)-butyl]-benzamide]
[1]
  IC50: 77 nM

## COc1cc2nc(NCCCCNC(=O)COC(C)=O)c3nnc(C)n3c2cc1OC [Example 87]
[2]
  IC50: ≤ 50 nM
[1]
  IC50: 27 nM

## COCCOc1ccc2c(c1)nc(NCCCCNC(=O)c1ccncc1)c1nnc(C)n12 [Example 418, N-{4-[7-(2-methoxy-ethoxy)-1-methyl-[1,2,4]triazolo[4,3-a]quinoxaline-4-ylamino]-butyl}-isonicotinamide]
[2]
  IC50: ≤ 50 nM
[1]
  IC50: 49 nM

## Cc1nnc2c(NCCCCOC(=O)C(C)C)nc3ccccc3n12 [Example 632]
[2]
  IC50: ≤ 50 nM
[1]
  IC50: 44 nM

## COCCOc1ccc2c(c1)nc(NCCCCNC(=O)[C@@H](NC(=O)C(C)(C)C)C(C)C)c1nnc(C)n12 [Example 402, (S)-2-(2,2-dimethyl-propionylamino)-N-{4-[7-(2-methoxy-ethoxy)-1-methyl-[1,2,4]triazolo[4,3-a]quinoxaline-4-ylamino]-butyl}-3-methyl-butyramide]
[2]
  IC50: ≤ 50 nM
[1]
  IC50: 18 nM

## Cc1cc2nc(NCCCCNC(=O)OC(C)(C)C)c3nnc(C)n3c2cc1C [Example 34, [4-(1,7,8-trimethyl-[1,2,4]triazolo[4,3-a]quinoxaline-4-ylamino)-butyl]-carbamic acid-tert-butylester]
[1]
  IC50: 81 nM

## COc1c(C)ccc2c1nc(NCCCCNC(=O)OCC(C)C)c1nnc(C)n12 [Example 134, [4-(6-methoxy-1,7-dimethyl-[1,2,4]triazolo[4,3-a]quinoxaline-4-ylamino)-butyl]-carbamic acid isobutylester]
[2]
  IC50: ≤ 50 nM
[1]
  IC50: 19 nM

## COc1cc2nc(NCCCCNC(=O)[C@H](O)C(C)C)c3nnc(C)n3c2cc1OC [Example 82, N-[4-(7,8-dimethoxy-1-methyl-[1,2,4]triazolo[4,3-a]quinoxaline-4-ylamino)-butyl]-2-(R)-hydroxy-3-methyl-butyramide]
[2]
  IC50: ≤ 50 nM
[1]
  IC50: 12 nM

## Cc1nnc2c(NCCCCNC(=O)c3ccc(Cl)cc3)nc3ccccc3n12 [Example 14, 4-chloro-N-[4-(1-methyl-[1,2,4]triazolo[4,3-a]quinoxaline-4-ylamino)-butyl]-benzamide]
[2]
  IC50: ≤ 50 nM
[1]
  IC50: 41 nM

## Cc1nnc2c(NCCCCNC(=O)c3ccccc3Cl)nc3cc(Cl)c(Cl)cc3n12 [Example 32]
[1]
  IC50: 89 nM

## COc1ccc2c(nc(NCCCCNC(=O)OC(C)(C)C)c3nnc(C)n32)c1Cl [Example 459, [4-(6-chloro-7-methoxy-1-methyl-[1,2,4]triazolo[4,3-a]quinoxaline-4-ylamino)-butyl]-carbamic acid-tert-butylester]
[2]
  IC50: ≤ 50 nM
[1]
  IC50: 30 nM

## Cc1nnc2c(NCCCCOC(=O)c3ccccc3)nc3ccccc3n12 [Example 634, benzoic acid-4-(1-methyl-[1,2,4]triazolo[4,3-a]quinoxaline-4-ylamino)-butylester]
[1]
  IC50: 91 nM

## COCCOc1ccc2c(c1)nc(NCCCCNC(=O)[C@@H](NC(=O)CC(C)C)C(C)C)c1nnc(C)n12 [Example 401, (S)-N-{4-[7-(2-methoxy-ethoxy)-1-methyl-[1,2,4]triazolo[4,3-a]quinoxaline-4-ylamino]-butyl}-3-methyl-2-(3-methyl-butyrylamino)-butyramide]
[2]
  IC50: ≤ 50 nM
[1]
  IC50: 12 nM

## Cc1noc(C)c1-c1ccc2nc(NCCCCNC(=O)[C@H](O)C(C)C)c3nnc(C)n3c2c1 [Example 581, N-{4-[8-(3,5-dimethyl-isoxazol-4-yl)-1-methyl-[1,2,4]triazolo[4,3-a]quinoxaline-4-ylamino]-butyl}-2-(R)-hydroxy-3-methyl-butyramide]
[2]
  IC50: ≤ 50 nM
[1]
  IC50: 24 nM

## COc1ccc2nc(NCCCCNC(=O)C(C)(C)C)c3nnc(C)n3c2c1 [Example 123, N-[4-(8-methoxy-1-methyl-[1,2,4]triazolo[4,3-a]quinoxaline-4-ylamino)-butyl]-2,2-dimethyl-propionamide]
[2]
  IC50: ≤ 50 nM
[1]
  IC50: 42 nM

## COCCOc1ccc2c(c1)nc(NCCCCNC(=O)C(C)(C)C(F)(F)F)c1nnc(C)n12 [Example 392, 3,3,3-trifluoro-N-{4-[7-(2-methoxy-ethoxy)-1-methyl-[1,2,4]triazolo[4,3-a]quinoxaline-4-ylamino]-butyl}-2,2-dimethyl-propionamide]
[2]
  IC50: ≤ 10 nM
[1]
  IC50: 9 nM

## COc1ccc2c(c1)nc(NCCCCNC(=O)[C@H](C(C)C)N1CCC(CCO)CC1)c1nnc(C)n12 [Example 317, 2-(S)-[4-(2-hydroxy-ethyl)-piperidine-1-yl]-N-[4-(7-methoxy-1-methyl-[1,2,4]triazolo[4,3-a]quinoxaline-4-ylamino)-butyl]-3-methyl-butyramide]
[2]
  IC50: ≤ 50 nM
[1]
  IC50: 31 nM

## Cc1noc(C)c1-c1ccc2nc(NCCCCN)c3nnc(C)n3c2c1 [Example 579, N^1-[8-(3,5-dimethyl-isoxazol-4-yl)-1-methyl-[1,2,4]triazolo[4,3-a]quinoxaline-4-yl]-butane-1,4-diamine ditrifluoroacetic acid]
[2]
  IC50: ≤ 10 nM
[1]
  IC50: 5 nM

## COCCOc1ccc2c(c1)nc(NCCCCNC(=O)[C@@H](NS(C)(=O)=O)C(C)C)c1nnc(C)n12 [Example 405, 2-(S)-methanesulfonylamino-{4-[7-(2-methoxy-ethoxy)-1-methyl-[1,2,4]triazolo[4,3-a]quinoxaline-4-ylamino]-butyl}-3-methyl-butyramide]
[2]
  IC50: ≤ 50 nM

## Cc1nnc2c(NCCCCOC(=O)C(C)(C)C)nc3ccccc3n12 [Example 631, 2,2-dimethyl-propionic acid-4-(1-methyl-[1,2,4]triazolo[4,3-a]quinoxaline-4-ylamino)-butylester]
[2]
  IC50: ≤ 50 nM
[1]
  IC50: 47 nM

## COc1cc2c(cc1C)nc(NCCCCNC(=O)[C@H](O)C(C)C)c1nnc(C)n12 [Example 152, 2-(R)-hydroxy-N-[4-(8-methoxy-1,7-dimethyl-[1,2,4]triazolo[4,3-a]quinoxaline-4-ylamino)-butyl]-3-methyl-butyramide]
[1]
  IC50: 96 nM

## COc1cc2nc(NCCCCNC(=O)OCC(C)C)c3nnc(C)n3c2cc1C(F)(F)F [Example 474, [4-(7-methoxy-1-methyl-8-trifluoromethyl-[1,2,4]triazolo[4,3-a]quinoxaline-4-ylamino)-butyl]-carbamic acid isobutylester]
[2]
  IC50: ≤ 50 nM
[1]
  IC50: 44 nM

## COc1ccc2nc(NCCCCNC(=O)[C@H](O)C(C)C)c3nnc(C)n3c2c1 [Example 125, 2-(R)-hydroxy-N-[4-(8-methoxy-1-methyl-[1,2,4]triazolo[4,3-a]quinoxaline-4-ylamino)-butyl]-3-methyl-butyramide]
[2]
  IC50: ≤ 50 nM
[1]
  IC50: 31 nM

## Cc1nnc2c(NCCCCNC(=O)c3ccccc3)nc3ccc(C(=O)NCCN(C)C)cc3n12 [Example 537, 4-(4-benzoylamino)-1-methyl-[1,2,4]triazolo[4,3-a]quinoxaline-8-carboxylic acid-(2-dimethylamino-ethyl)-amide]
[1]
  IC50: 93 nM

## Cc1nnc2c(NCCCCNC(=O)c3ccccc3)nc3cc(Cl)c(Cl)cc3n12 [Example 31, N-[4-(7,8-dichloro-1-methyl-[1,2,4]triazolo[4,3-a]quinoxaline-4-ylamino)-butyl]-benzamide]
[2]
  IC50: ≤ 50 nM
[1]
  IC50: 31 nM

## COCCOc1ccc2c(c1)nc(NCCCCNC(=O)COC(C)=O)c1nnc(C)n12 [Example 386, acetic acid-{4-[7-(2-methoxy-ethoxy)-1-methyl-[1,2,4]triazolo[4,3-a]quinoxaline-4-ylamino]-butylcarbamoyl}-methylester]
[1]
  IC50: 78 nM
